This is an account of results in patent publication US20230250436A1, “NUCLEIC ACID THAT INTERACTS WITH A RECEPTOR FOR ENDOCRINE DISRUPTING CHEMICALS AND USE THEREOF” (KUMIAI CHEMICAL INDUSTRY CO., LTD., priority 2020, published 2023).

Common to all, as to type: cell-based
The subject of test [1] is juvenile hormone receptor of Daphnia magna (DampaMET). Description: Yeast reporter (β-galactosidase) assay, transformants with DampaMET and DampaSRC. Also noted: key to Increase in induction: increase of induction; positive value = reporter activity to substance. As to the method:
(§1) Subsequently, a reporter plasmid prepared by inserting the nucleotide sequence shown in SEQ ID NO: 2 into a yeast comprising the DampaMET plasmid and the DampaSRC plasmid introduced thereinto by the lithium acetate method. Thus, Yeast 1 of Invention was obtained. In the same manner, Yeasts 2 to 38 of Invention each comprising the response element according to the present invention and Control yeasts 1 to 9 shown in Table 3 were prepared.
(§2) With the use of the Yeast 1 of Invention, reporter activity to methyl farnesoate as a juvenile hormone substance was measured. At the outset, the Yeast 1 of Invention was subjected to pre-culture at 30° C. for 18 hours using the pre-culture medium shown in Table 1 until the turbidity (O.D. 595) of the pre-culture medium reached approximately 0.1. The solution of the pre-cultured cells (10 μl) and 1 μl of the solution of methyl farnesoate diluted to various concentrations with dimethyl sulfoxide (DMSO) were mixed with 90 μl of the main culture solution shown in Table 4 in a 96-well plate, and the mixture was subjected to static culture at 30° C. for 18 hours to prepare a reaction solution. The resultant was designated as a test group.
(§3) A reaction solution prepared with the addition of 1 μl of DMSO instead of a diluted methyl farnesoate solution was designated as a control group. Fractions of 10 μl each were collected from the reaction solutions and dispensed into each well of another 96-well plate. Thereafter, 100 μl of an assay reagent comprising a lytic solution (Z buffer: 60 mM Na2HPO4, 40 mM NaH2PO4, 1 mM MgCl2, 10 mM KCl, 2 mM dithiothreitol, 0.20% N-lauroylsarcosine sodium salt) mixed with 1 mg/ml ONPG (orthonitrophenylgalactopyranoside) was dispensed into each well, and the reaction was allowed to proceed at 37° C. for 30 minutes. Thereafter, the absorbance (O.D. 405) and the turbidity (O.D. 595) of the reaction solutions were assayed at the wavelength of 405 nm using a microplate reader (tradename: iMark microplate reader, Bio-Rad Laboratories). The increase of induction was calculated in accordance with the following formula.
(§4) The increase of induction is described in Ito-Harashima S et al., FEBS Open Bio., 7 (7): pp. 995-1008, 2017. When the increase of induction is positive, the transformant is determined to have reporter activity to the substance tested. The test was performed once or repeated 3 times, 5 times, or 15 times, and the average increase of induction was calculated. The control yeast 1 was treated in the same manner and reporter activity was compared.
In the same manner as in Test Example 1, the Yeasts 2, 3, 4, 5, 6, 7, 9, 10, 11, 12, 13, 14, 15, 16, 17, 18, 19, and 20 of Invention were subjected to assays of reporter activity to methyl farnesoate. The test was performed in accordance with Test Example 1, and reporter activity of the yeasts indicated above was compared with that of the control yeasts 2, 3, and 4.
With the use of the control yeast 7 comprising a different nucleotide sequence of the C-box (CACGCG) in the response element, the control yeast 8 comprising a different nucleotide sequence of the E-box (CACGTG), and the control yeast 9 comprising different nucleotide sequences of the C-box and the E-box from the relevant nucleotide sequences of the Yeast 4 of Invention, the influence of a core sequence on reporter activity to methyl farnesoate was evaluated. The test was performed in accordance with Test Example 1.
(§5) With the use of the Yeast 4 and the Yeast 8 of the present Invention, reporter activity to sex hormones; i.e., 17β-estradiol and testosterone, insect juvenile hormones; i.e., juvenile hormone III, and chemical substances suspected of having endocrine disrupting actions, such as 4-nonyl phenol, bisphenol A, 1,1,1-trichloro-2,2-bis(4-chlorophenyl)ethane (DDT), 2,2-bis(4-chlorophenyl)-1,1-dichloroethylene (DDE), and dieldrin, was assayed. The test was performed in accordance with Test Example 1. All the test substances were treated at 10 μM. […]

Test [2] shares this test system. Briefly: Yeast reporter (β-galactosidase) assay, Control yeast 5 with DampaMET, DmTai and DmJHRR. Conditions: Control yeast 5 (DmJHRR x3, DampaMET, DmTai), test substance 10 μM. On the procedure:
For further comparison, a plasmid comprising a region including the juvenile hormone response element of the Kr-hi gene of Drosophila melanogaster (DmJHRR) inserted thereinto was prepared. DmJHRR is described in He Q et al., J. Biol. Chem., 289 (40), pp. 27874-27885, 2014. A plasmid comprising 3 consecutive repeats of the DmJHRR sequence inserted thereinto was prepared in accordance with the method described above, except that oligo DNA comprising the DmJHRR sequence (SEQ ID NO: 15) was used instead of the oligo DNA shown in SEQ ID NO: 3 and oligo DNA partially complementary to SEQ ID NO: 15 (SEQ ID NO: 16) was used instead of the oligo DNA shown in SEQ ID NO: 4.
as §1, §2, §3, §4, §5

In test [3] the test system is juvenile hormone receptor of Drosophila melanogaster (DmMET). Description: Yeast reporter (β-galactosidase) assay, transformants with DmMET and DmTai. The settings on record: test substance 10 μM. On the procedure:
A plasmid expressing a juvenile hormone receptor of Drosophila melanogaster (hereafter, referred to as a “DmMET plasmid”) was prepared in the same manner. At the outset, ORF of cDNA of the DmMET gene was amplified by PCR using, as a template, cDNA of Drosophila melanogaster larvae (Clontech) and the primers for DmMET: DmMET Fwd (SEQ ID NO: 21) and DmMET Rev (SEQ ID NO: 22). PCR was carried out by repeating a cycle of 98° C. for 10 seconds, 55° C. for 30 seconds, and 68° C. for 1.5 minutes 25 times.
as §1, §2, §3, §4
With the use of the Yeast 4 and the Yeast 8 of the present Invention, reporter activity to sex hormones; i.e., 17β-estradiol and testosterone, insect juvenile hormones; i.e., juvenile hormone III, and chemical substances suspected of having endocrine disrupting actions, such as 4-nonyl phenol, bisphenol A, 1,1,1-trichloro-2,2-bis(4-chlorophenyl)ethane (DDT), 2,2-bis(4-chlorophenyl)-1,1-dichloroethylene (DDE), and dieldrin, was assayed. The test was performed in accordance with Test Example 1. All the test substances were treated at 10 μM. For comparison, reporter activity to compounds was assayed using the control yeast 5 and the control yeast 6 comprising a known juvenile hormone receptor response element (i.e., the JH response element of Drosophila melanogaster) integrated therein.

The subject of test [4] is juvenile hormone receptor of Daphnia magna (DampaMET). Description: Yeast reporter assay for antagonist activity in the presence of 10 nM methyl farnesoate. Conditions: Yeast 4 of Invention; test substance 10 μM in the presence of 10 nM methyl farnesoate; 0 = group treated with 10 nM methyl farnesoate. As to the method:
as §2
A reaction solution prepared with the addition of 1 μl of DMSO instead of a diluted methyl farnesoate solution was designated as a control group. Fractions of 10 μl each were collected from the reaction solutions and dispensed into each well of another 96-well plate. […] Thereafter, the absorbance (O.D. 405) and the turbidity (O.D. 595) of the reaction solutions were assayed at the wavelength of 405 nm using a microplate reader (tradename: iMark microplate reader, Bio-Rad Laboratories). The increase of induction was calculated in accordance with the following formula.
The increase of induction is described in Ito-Harashima S et al., FEBS Open Bio., 7 (7): pp. 995-1008, 2017. When the increase of induction is positive, the transformant is determined to have reporter activity to the substance tested. The test was performed once or repeated 3 times, 5 times, or 15 times, and the average increase of induction was calculated. […]
With the use of the yeast 4 of the present invention, antagonist activity of juvenile hormone receptors to endrin, aldrin, and dieldrin was evaluated at 10 μM. […]
(In a reporter assay the amount or activity of a reporter protein is the signal.)

[5] abbreviates: Yeast 4 of Invention (SEQ ID NO: 2 x4, DampaMET, DampaSRC), test substance 10 μM.
Where [6] appears, read: Control yeast 6 (DmJHRR x3, DmMET, DmTai).
Setting [7] is: Yeast 8 of Invention (SEQ ID NO: 2 x4, DmMET, DmTai).
[8] abbreviates: Yeast 4 of Invention (SEQ ID NO: 2 x4), test substance 100 μM.

Regarding `CC(C)(c1ccc(O)cc1)c1ccc(O)cc1` [Bisphenol A, bisphenol A], the Increase in induction was 1.14 in test [1] (setting [5]), −0.38 in test [2], −0.23 in test [3] (setting [6]) and 0.52 in test [3] (setting [7]).

For the compound `C[C@]12CC[C@@H]3c4ccc(O)cc4CC[C@H]3[C@@H]1CC[C@@H]2O` [17β-estradiol], the Increase in induction in test [1] (setting [5]) is 1.97; in test [2], −0.14; in test [3] (setting [6]), −0.29; in test [3] (setting [7]), 1.01.

Regarding `ClC1=C(Cl)C2(Cl)C3C4CC(C5OC45)C3C1(Cl)C2(Cl)Cl` (stereo not shown) [Endrin, endrin], the “Increase in induction (antagonist activity)” value in test [4] is listed as −0.03.

Regarding `COc1ccc(-n2c(=O)c(C(=O)C3C(=O)CCCC3=O)nc3c(Cl)cccc32)cc1` [Fenquinotrione, fenquinotrione], in test [1] (setting [8]), the Increase in induction is −0.24.

For `COC(=O)/C=C(\C)CC/C=C(\C)CC[C@H]1OC1(C)C` [Juvenile hormone III, juvenile hormone III], the Increase in induction is 6.20 in test [1] (setting [5]); 0.41 in test [2]; “induced” in test [2] (listed as juvenile hormone III); 0.58 in test [3] (setting [6]); “induced” in test [3] (Control yeast 6 (DmJHRR x3, DmMET, DmTai), listed as juvenile hormone III); 1.45 in test [3] (setting [7]).

On to `COC(=O)NCc1cc(/C(C)=N/OCc2cccc(C)n2)ccc1Cl` [Pyribencarb, pyribencarb], for which the Increase in induction in test [1] (setting [8]) is −0.24.

Compound `CC(C)OC(=O)N[C@H](C(=O)N[C@H](C)c1nc2ccc(F)cc2s1)C(C)C` [Benthiavalicarb isopropyl, benthiavalicarb isopropyl] returned an Increase in induction in test [1] (setting [8]) of −0.37.

Consider `CCCCCCCCCc1ccc(O)cc1` [4-nonyl phenol], for which the results for the Increase in induction in test [1] (setting [5]) and in test [3] (setting [7]) were 2.16 and 1.81, respectively.

Consider `Clc1ccc(C(c2ccc(Cl)cc2)C(Cl)(Cl)Cl)cc1` [DDT, 1,1,1-trichloro-2,2-bis(4-chlorophenyl)ethane], for which the Increase in induction is listed as 0.65 in test [1] (setting [5]), −0.07 in test [2], −0.24 in test [3] (setting [6]) and 0.37 in test [3] (setting [7]).

The compound `CC#Cc1cc(C)nc(Nc2ccccc2)n1` [Mepanipyrim, mepanipyrim] had an Increase in induction in test [1] (setting [8]) of −0.76.

In the case of `ClC1=C(Cl)C2(Cl)C3C4C=CC(C4)C3C1(Cl)C2(Cl)Cl` (stereo not shown) [Aldrin, aldrin], the “Increase in induction (antagonist activity)” value in test [4] is −9.02.

Consider `ClC1=C(Cl)[C@]2(Cl)[C@@H]3[C@@H]4C[C@@H]([C@H]5O[C@@H]45)[C@@H]3[C@@]1(Cl)C2(Cl)Cl` [Dieldrin, dieldrin], for which the “Increase in induction (antagonist activity)” value in test [4] was −12.46. Besides, the Increase in induction in test [1] (setting [5]) is recorded as 3.85; in test [2], 0.00; in test [3] (setting [6]), −0.02; in test [3] (setting [7]) it was 0.89.

On to `C[C@]12CC[C@H]3[C@@H](CCC4=CC(=O)CC[C@@]43C)[C@@H]1CC[C@@H]2O` [Testosterone, testosterone], for which the Increase in induction in test [1] (setting [5]) is listed as 1.78; in test [2] it was −0.02; in test [3] (setting [6]) it was −0.22; in test [3] (setting [7]), 0.98.

In the case of `ClC(Cl)=C(c1ccc(Cl)cc1)c1ccc(Cl)cc1` [DDE, 2,2-bis(4-chlorophenyl)-1,1-dichloroethylene], the Increase in induction in test [1] (setting [5]) is 2.15; in test [2], −0.08; in test [3] (setting [6]) it was −0.19; in test [3] (setting [7]), 1.23.

Consider `Cn1nc(C(F)(F)F)c(CS(=O)(=O)C2=NOC(C)(C)C2)c1OC(F)F` [Pyroxasulfone, pyroxasulfone], for which the Increase in induction in test [1] (setting [8]) is on record as −0.50.
